Columns and labels:
[1] = system: volunteers; assay: Sternberg task test, double blind crossover vs placebo; format: in vivo, human; details: 200 mg; for Sternberg Mean Response Time: in ms (unit assumed)
Description: (§1) In a double blind, randomized, crossover, and repeated measures manner, 13 volunteers (10 male, 3 female, average age 24±5 years, average body weight 72.91±19.30 kg, average height 169.96±11.84 cm, average BMI 24.80±3.71 kg/m^2) participated in this study. Participants limited ingestion of caffeine and other stimulants to normal use for 48-hours, fasted for 8-hours and reported to the lab and completed 4 different cognitive function tests to assess short-term attention and inhibitory control (Go-No Go Test), sustained attention (Vigilance Task Test), working memory (Sternberg Task Test) and cognitive flexibility (Berg-Washington Card Sorting Test). Once completed, the participants ingested either a placebo or 200 mg of paraxanthine (WGI, TX, USA) with 8 ounces of water. Participants repeated cognitive function tests 1, 2, 3, 4, 5, and 6 hours after ingestion of the supplement. After one-week participants repeated the experiment while consuming the other treatment.
(§2) Data were analyzed by a General Linear Model multivariate and univariate analyses with repeated measures using body weight as a covariate. Data are expressed as means±standard deviations for the placebo (PLA) and Paraxanthine (PrX). Greenhouse-Geisser univariate p-levels are listed for time (T), weight×time (W×T) and group×time (G×T) interactions effects. Pairwise comparison is indicated by the following superscripts: †=[…] difference from baseline value; *=[…] difference from baseline; a=[…] difference between groups; b=[…] difference between groups. Eta2 vaules of […] are considered small, […] medium, and >0.14 are considered large.
A test of working memory, ability to make use of short-term memory. A lower reaction time means participants can access their working memory faster. The Sternberg Task test is a widely used paradigm for studying short-term/working memory (STM/WM) involving cognitive control processes.

[2] = system: volunteers; assay: Berg-Washington Card Sorting Task Test (BCST), double blind crossover vs placebo; format: in vivo, human; details: 200 mg
Description: as §1, §2
Berg-Washington Card Sorting Task Test is a test of basic cognitive flexibility or set-shifting between old/new rule changes. The test involves reasoning, learning, executive control and attention shifting. It is particularly sensitive to the inability to shift set. Less errors means subjects were able to both recognize and ‘shift’ to a new rule with higher ability. […]

[3] = Mean (SEM) over all hours, listed as PrX

Cn1c(=O)[nH]c2ncn(C)c2c1=O [paraxanthine, 1,7-dimethylxanthine]
letter length 2 present reaction time (FIG. 18) [1]: significantly improved reaction times | letter length 4 absent reaction time (FIG. 16) [1]: no significant differences over time or between treatments | letter length 4 present reaction time (FIG. 19) [1]: no significant differences over time or between treatments, with Paraxanthine showing greater improvements during hours 3-6 | letter length 6 absent reaction time (FIG. 17) [1]: no significant differences over time or between treatments, with Paraxanthine showing greater improvement during hours 3-5 | Letter Length 2: Absent Reaction Time (Millisecond) ([1]; Mean (SEM) over all hours): 577.6 ± 27.1 Millisecond | Letter Length 2: Present Reaction Time (Millisecond) ([1]; Mean (SEM) over all hours): 503.5 ± 17.8 Millisecond | Letter Length 4: Absent Reaction Time (Millisecond) ([1]; Mean (SEM) over all hours): 741.3 ± 40.0 Millisecond | Letter Length 4: Present Reaction Time (Millisecond) ([1]; Mean (SEM) over all hours): 617.9 ± 25.1 Millisecond | Letter Length 6: Absent Reaction Time (Millisecond) ([1]; Mean (SEM) over all hours): 970.0 ± 55.7 Millisecond | Letter Length 6: Present Reaction Time (Millisecond) ([1]; Mean (SEM) over all hours): 808.2 ± 40.2 Millisecond | Sternberg Mean Response Time ([1]; Mean (SEM) over all hours): 703.1 ± 32.4 | short-term/working memory, letter length 6 present reaction time ([1]; after 4 and 5 hours): significantly increased short-term/working memory | Letter Length 2: Absent Reaction Time (Millisecond) ([1]; hour 0 (before ingestion)): 621.9 ± 154.3 Millisecond | Letter Length 2: Present Reaction Time (Millisecond) ([1]; hour 0 (before ingestion)): 541.1 ± 104.2 Millisecond | Letter Length 4: Absent Reaction Time (Millisecond) ([1]; hour 0 (before ingestion)): 748.7 ± 148.5 Millisecond | Letter Length 4: Present Reaction Time (Millisecond) ([1]; hour 0 (before ingestion)): 625.9 ± 100.6 Millisecond | Letter Length 6: Absent Reaction Time (Millisecond) ([1]; hour 0 (before ingestion)): 1,012.5 ± 334.2 Millisecond | Letter Length 6: Present Reaction Time (Millisecond) ([1]; hour 0 (before ingestion)): 841.6 ± 254.0 Millisecond | Sternberg Mean Response Time ([1]; hour 0 (before ingestion)): 731.9 ± 163.0 | Letter Length 2: Absent Reaction Time (Millisecond) ([1]; hour 1 after ingestion): 596.7 Millisecond | Letter Length 2: Present Reaction Time (Millisecond) ([1]; hour 1 after ingestion): 516.6 Millisecond | Letter Length 4: Absent Reaction Time (Millisecond) ([1]; hour 1 after ingestion): 755.5 Millisecond | Letter Length 4: Present Reaction Time (Millisecond) ([1]; hour 1 after ingestion): 642.9 Millisecond | Letter Length 6: Absent Reaction Time (Millisecond) ([1]; hour 1 after ingestion): 986.5 Millisecond | Letter Length 6: Present Reaction Time (Millisecond) ([1]; hour 1 after ingestion): 829.7 Millisecond | Sternberg Mean Response Time ([1]; hour 1 after ingestion): 721.3 | Letter Length 2: Absent Reaction Time (Millisecond) ([1]; hour 2 after ingestion): 579.7 Millisecond | Letter Length 2: Present Reaction Time (Millisecond) ([1]; hour 2 after ingestion): 503.8 Millisecond | Letter Length 4: Absent Reaction Time (Millisecond) ([1]; hour 2 after ingestion): 758.4 Millisecond | Letter Length 4: Present Reaction Time (Millisecond) ([1]; hour 2 after ingestion): 614.7 Millisecond | Letter Length 6: Absent Reaction Time (Millisecond) ([1]; hour 2 after ingestion): 1,011.3 Millisecond | Letter Length 6: Present Reaction Time (Millisecond) ([1]; hour 2 after ingestion): 800.0 Millisecond | Sternberg Mean Response Time ([1]; hour 2 after ingestion): 711.3 | letter length 2 absent reaction time (FIG. 15) ([1]; hour 3, 4 and 5): trend towards improved reaction times | Letter Length 2: Absent Reaction Time (Millisecond) ([1]; hour 3 after ingestion): 559.3 Millisecond | Letter Length 2: Present Reaction Time (Millisecond) ([1]; hour 3 after ingestion): 497.1 Millisecond | Letter Length 4: Absent Reaction Time (Millisecond) ([1]; hour 3 after ingestion): 762.3 Millisecond | Letter Length 4: Present Reaction Time (Millisecond) ([1]; hour 3 after ingestion): 634.6 Millisecond | Letter Length 6: Absent Reaction Time (Millisecond) ([1]; hour 3 after ingestion): 980.9 Millisecond | Letter Length 6: Present Reaction Time (Millisecond) ([1]; hour 3 after ingestion): 830.6 Millisecond | Sternberg Mean Response Time ([1]; hour 3 after ingestion): 710.8 | Letter Length 2: Absent Reaction Time (Millisecond) ([1]; hour 4 after ingestion): 553.8 Millisecond | Letter Length 2: Present Reaction Time (Millisecond) ([1]; hour 4 after ingestion): 488.3 Millisecond | Letter Length 4: Absent Reaction Time (Millisecond) ([1]; hour 4 after ingestion): 701.3 Millisecond | Letter Length 4: Present Reaction Time (Millisecond) ([1]; hour 4 after ingestion): 598.2 Millisecond | Letter Length 6: Absent Reaction Time (Millisecond) ([1]; hour 4 after ingestion): 914.8 Millisecond | Letter Length 6: Present Reaction Time (Millisecond) ([1]; hour 4 after ingestion): 778.1 Millisecond | Sternberg Mean Response Time ([1]; hour 4 after ingestion): 672.4 | Letter Length 2: Absent Reaction Time (Millisecond) ([1]; hour 5 after ingestion): 558.8 Millisecond | Letter Length 2: Present Reaction Time (Millisecond) ([1]; hour 5 after ingestion): 490.3 Millisecond | Letter Length 4: Absent Reaction Time (Millisecond) ([1]; hour 5 after ingestion): 717.5 Millisecond | Letter Length 4: Present Reaction Time (Millisecond) ([1]; hour 5 after ingestion): 617.1 Millisecond | Letter Length 6: Absent Reaction Time (Millisecond) ([1]; hour 5 after ingestion): 913.5 Millisecond | Letter Length 6: Present Reaction Time (Millisecond) ([1]; hour 5 after ingestion): 761.8 Millisecond | Sternberg Mean Response Time ([1]; hour 5 after ingestion): 676.5 | Letter Length 2: Absent Reaction Time (Millisecond) ([1]; hour 6 after ingestion): 568.9 Millisecond | Letter Length 2: Present Reaction Time (Millisecond) ([1]; hour 6 after ingestion): 483.8 Millisecond | Letter Length 4: Absent Reaction Time (Millisecond) ([1]; hour 6 after ingestion): 742.2 Millisecond | Letter Length 4: Present Reaction Time (Millisecond) ([1]; hour 6 after ingestion): 590.3 Millisecond | Letter Length 6: Absent Reaction Time (Millisecond) ([1]; hour 6 after ingestion): 970.7 Millisecond | Letter Length 6: Present Reaction Time (Millisecond) ([1]; hour 6 after ingestion): 816.4 Millisecond | Sternberg Mean Response Time ([1]; hour 6 after ingestion): 695.4 | letter length 6 present reaction time (FIG. 20) ([1]; hours 4 and 5): improved present reaction time | decrease of mean response times in the Sternberg Test compared to baseline ([1]; overall, vs baseline): 3.9% | number of correct answers in BCST, in words [2]: significantly increased | number of errors in BCST, in words [2]: reducing the number of errors | perseverative errors PEBL (FIG. 3) [2]: no significant time or between treatment effects | BCST Correct Response ([2]; Mean (SEM) over all hours): 97.3 | BCST Errors ([2]; Mean (SEM) over all hours): 18.0 | BCST Perseverative Errors (PAR rules) ([2]; Mean (SEM) over all hours): 8.7 ± 1.6 | BCST Perseverative Errors (PEBL) ([2]; Mean (SEM) over all hours): 12.7 ± 1.2 | BCST Correct Response [2, 3]: 102.5 ± 3.4 | BCST Errors [2, 3]: 18.0 ± 3.9 | change in correct answers after 6 hours ([2]; after 6 hours): +1.9 | change in errors after 6 hours ([2]; after 6 hours): −0.6 | correct responses adjusted for differences in baseline values ([2]; baseline-adjusted): 2.5 | errors adjusted for differences in baseline values ([2]; baseline-adjusted): −1.5 | less errors than placebo, adjusted for differences in baseline values ([2]; baseline-adjusted, vs placebo): 600% | more correct responses than placebo, adjusted for differences in baseline values ([2]; baseline-adjusted, vs placebo): 150% | BCST Correct Response ([2]; hour 0 (before ingestion)): 100.0 ± 6.6 | BCST Errors ([2]; hour 0 (before ingestion)): 19.5 ± 6.6 | BCST Perseverative Errors (PAR rules) ([2]; hour 0 (before ingestion)): 10.1 ± 4.6 | BCST Perseverative Errors (PEBL) ([2]; hour 0 (before ingestion)): 13.7 ± 5.0 | BCST Correct Response ([2]; hour 1 after ingestion): 101.4 ± 3.6 | BCST Errors ([2]; hour 1 after ingestion): 18.1 ± 4.3 | BCST Perseverative Errors (PAR rules) ([2]; hour 1 after ingestion): 8.8 ± 2.1 | BCST Perseverative Errors (PEBL) ([2]; hour 1 after ingestion): 12.5 ± 3.0 | BCST Correct Response ([2]; hour 2 after ingestion): 104.3 | BCST Errors ([2]; hour 2 after ingestion): 16.8 | BCST Perseverative Errors (PAR rules) ([2]; hour 2 after ingestion): 7.8 | BCST Perseverative Errors (PEBL) ([2]; hour 2 after ingestion): 12.3 | number of correct responses (FIG. 1) ([2]; hour 2 and 4 over baseline): significantly (p<0.5) increased | BCST Correct Response ([2]; hour 3 after ingestion): 100.6 ± 5.8 | BCST Errors ([2]; hour 3 after ingestion): 17.0 ± 3.9 | BCST Perseverative Errors (PAR rules) ([2]; hour 3 after ingestion): 8.5 ± 2.9 | BCST Perseverative Errors (PEBL) ([2]; hour 3 after ingestion): 12.3 ± 3.2 | number of correct responses between groups (FIG. 1) ([2]; hour 4, between groups): showed a trend (p<0.1) between groups | BCST Correct Response ([2]; hour 4 after ingestion): 106.4 | BCST Errors ([2]; hour 4 after ingestion): 19.0 | BCST Perseverative Errors (PAR rules) ([2]; hour 4 after ingestion): 8.6 | BCST Perseverative Errors (PEBL) ([2]; hour 4 after ingestion): 13.3 | BCST Correct Response ([2]; hour 5 after ingestion): 101.5 ± 4.0 | BCST Errors ([2]; hour 5 after ingestion): 18.5 ± 4.2 | BCST Perseverative Errors (PAR rules) ([2]; hour 5 after ingestion): 8.8 ± 3.6 | BCST Perseverative Errors (PEBL) ([2]; hour 5 after ingestion): 13.1 ± 3.6 | perseverative errors PAR between groups (FIG. 4) ([2]; hour 6, between groups): trend (p<0.1) towards less errors between groups | BCST Correct Response ([2]; hour 6 after ingestion): 103.5 | BCST Errors ([2]; hour 6 after ingestion): 16.3 | BCST Perseverative Errors (PAR rules) ([2]; hour 6 after ingestion): 8.1 | BCST Perseverative Errors (PEBL) ([2]; hour 6 after ingestion): 11.7 | errors compared to baseline (FIG. 2) ([2]; hour 6 vs baseline): trend (p<0.1) towards less error | less errors than placebo, overall ([2]; overall, vs placebo): 23.7% | more correct responses than placebo, overall ([2]; overall, vs placebo): 5.3%
